Test results: ChEMBL document CHEMBL1201862, “PubChem BioAssay data set” (2004)
Calls of active or inactive are those of the source.

How the values were obtained:
[1] = target: T1, RNA-editing ligase 1, mitochondrial (Trypanosoma brucei brucei, UniProt P86926); assay: TbREL1 ligase inhibitors, dose response, biochemical, fluorescence, Trypanosoma brucei (AID 1117295); assay type: functional
T1 sequence (P86926 whole entry): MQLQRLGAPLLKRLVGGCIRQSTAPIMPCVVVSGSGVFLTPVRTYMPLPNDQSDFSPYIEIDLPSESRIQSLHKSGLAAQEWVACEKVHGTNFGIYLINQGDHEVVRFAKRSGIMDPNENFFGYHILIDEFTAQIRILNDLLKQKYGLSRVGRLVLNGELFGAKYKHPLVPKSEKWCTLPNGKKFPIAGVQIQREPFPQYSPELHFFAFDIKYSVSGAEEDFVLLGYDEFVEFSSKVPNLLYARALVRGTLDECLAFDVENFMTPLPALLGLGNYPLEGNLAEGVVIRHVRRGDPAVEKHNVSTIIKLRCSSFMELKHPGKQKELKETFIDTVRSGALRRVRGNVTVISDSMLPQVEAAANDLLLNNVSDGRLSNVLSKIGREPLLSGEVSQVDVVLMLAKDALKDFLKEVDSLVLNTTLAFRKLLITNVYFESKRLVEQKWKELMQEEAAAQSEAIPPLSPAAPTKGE

[2] = inhibitors of intracellular T. cruzi replication, confirmation, NIH3T3 host cells, beta-gal luminescence (AID 2044); assay type: functional, cell-based;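 also: intracellular parasites grown in NIH/3T3 mouse fibroblasts as host cells; luminescent beta-galactosidase reporter signal from transgenic T. cruzi replicating inside host cells; inhibitors lower the luminescence signal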
[3] = cytotoxicity toward NIH3T3 fibroblasts, dose response, counter-screen, cell-based, ATP luminescence, mouse fibroblasts (AID 2010); assay type: functional;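 also: cells exposed to compound for about 90 hours before reading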
cells [4] = assay: cells
Estrogen receptor = target: T2, Estrogen receptor (Homo sapiens, UniProt P03372);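 also: potency for inhibiting coactivator peptide recruitment to the receptor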
T2 sequence (P03372 whole entry): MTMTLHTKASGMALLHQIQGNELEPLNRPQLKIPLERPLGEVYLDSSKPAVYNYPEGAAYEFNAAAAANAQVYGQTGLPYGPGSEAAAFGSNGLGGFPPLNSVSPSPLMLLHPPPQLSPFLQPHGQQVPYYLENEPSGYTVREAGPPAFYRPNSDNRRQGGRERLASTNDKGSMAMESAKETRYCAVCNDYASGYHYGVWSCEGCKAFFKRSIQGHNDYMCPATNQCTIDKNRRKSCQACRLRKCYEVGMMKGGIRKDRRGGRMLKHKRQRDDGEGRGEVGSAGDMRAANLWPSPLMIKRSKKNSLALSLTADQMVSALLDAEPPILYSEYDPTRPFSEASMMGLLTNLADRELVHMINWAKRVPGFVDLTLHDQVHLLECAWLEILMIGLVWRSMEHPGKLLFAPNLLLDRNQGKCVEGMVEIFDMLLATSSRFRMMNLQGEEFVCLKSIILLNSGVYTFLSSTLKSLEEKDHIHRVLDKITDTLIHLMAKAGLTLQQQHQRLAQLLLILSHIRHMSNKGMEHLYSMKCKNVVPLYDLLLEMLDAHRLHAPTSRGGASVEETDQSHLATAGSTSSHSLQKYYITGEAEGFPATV

[5] = HEp-2 cell cytotoxicity, dose response, cytotoxicity control for RSV inhibitor project, HTS (AID 2410); assay type: functional; settings: human respiratory syncytial virus
Large T antigen = Large T antigen (Simian virus 40, UniProt P03070); assay type: functional, Betapolyomavirus macacae;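 also: Confirmatory-stage PubChem screen for compounds that inhibit SV40 T antigen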
[6] = target: T3, Mannose-6-phosphate isomerase (Homo sapiens, UniProt P34949); assay: inhibitors of human PMI, primary screen, biochemical, fluorescence intensity, coupled assay (AID 1209)
T3 sequence (P34949 whole entry): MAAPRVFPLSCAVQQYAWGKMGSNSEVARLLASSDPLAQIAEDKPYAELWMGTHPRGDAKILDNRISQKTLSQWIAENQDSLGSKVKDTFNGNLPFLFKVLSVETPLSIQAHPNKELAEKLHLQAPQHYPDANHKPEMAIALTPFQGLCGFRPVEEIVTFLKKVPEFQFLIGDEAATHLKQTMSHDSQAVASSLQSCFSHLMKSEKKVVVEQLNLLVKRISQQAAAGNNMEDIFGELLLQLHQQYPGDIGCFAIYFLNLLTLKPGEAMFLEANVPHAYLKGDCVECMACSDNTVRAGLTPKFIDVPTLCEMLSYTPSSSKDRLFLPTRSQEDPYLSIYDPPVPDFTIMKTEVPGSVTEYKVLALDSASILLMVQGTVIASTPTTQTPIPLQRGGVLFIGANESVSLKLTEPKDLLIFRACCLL

cells [7] = assay: cells; remark: listed apart in the source
Leucine aminopeptidase = target: T4, Leucine aminopeptidase (Plasmodium falciparum 3D7, UniProt Q8IL11); assay: P. falciparum M17LAP inhibitors, primary screen, biochemical, fluorogenic H-Leu-NHMec substrate, 1536-well (AID 1619); assay type: functional
T4 sequence (Q8IL11 whole entry): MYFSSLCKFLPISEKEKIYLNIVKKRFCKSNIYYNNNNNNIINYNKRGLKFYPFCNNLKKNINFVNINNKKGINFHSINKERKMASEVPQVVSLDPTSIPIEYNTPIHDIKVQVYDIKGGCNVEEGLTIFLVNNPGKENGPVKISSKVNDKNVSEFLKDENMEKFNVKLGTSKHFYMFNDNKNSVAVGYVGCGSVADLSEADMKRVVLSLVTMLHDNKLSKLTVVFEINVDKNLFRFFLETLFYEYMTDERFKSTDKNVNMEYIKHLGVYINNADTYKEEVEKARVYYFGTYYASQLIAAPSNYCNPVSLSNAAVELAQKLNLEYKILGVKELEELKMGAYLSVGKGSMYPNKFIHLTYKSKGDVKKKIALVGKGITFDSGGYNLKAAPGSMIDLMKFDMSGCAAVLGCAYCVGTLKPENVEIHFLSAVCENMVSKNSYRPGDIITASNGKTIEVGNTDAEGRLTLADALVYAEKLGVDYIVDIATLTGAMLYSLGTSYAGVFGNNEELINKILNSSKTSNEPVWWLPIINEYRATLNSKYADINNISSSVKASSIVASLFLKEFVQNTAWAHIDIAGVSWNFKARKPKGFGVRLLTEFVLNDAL

Aspartyl aminopeptidase = target: T5, Aspartyl aminopeptidase (Plasmodium falciparum 3D7, UniProt Q8I2J3); assay: Counterscreen for inhibitors of M1 and M17 aminopeptidases: QFRET-based biochemical high throughput dose response assay for inhibitors of the Plasmodium falciparum M18 Aspartyl Aminopeptidase (PFM18AAP). [Related PubChem assays: 1619 (Screening assay (M17LAP inhibitors).), 1445 (Screening assay (M1AAP inhibitors).)]
T5 sequence (Q8I2J3 whole entry): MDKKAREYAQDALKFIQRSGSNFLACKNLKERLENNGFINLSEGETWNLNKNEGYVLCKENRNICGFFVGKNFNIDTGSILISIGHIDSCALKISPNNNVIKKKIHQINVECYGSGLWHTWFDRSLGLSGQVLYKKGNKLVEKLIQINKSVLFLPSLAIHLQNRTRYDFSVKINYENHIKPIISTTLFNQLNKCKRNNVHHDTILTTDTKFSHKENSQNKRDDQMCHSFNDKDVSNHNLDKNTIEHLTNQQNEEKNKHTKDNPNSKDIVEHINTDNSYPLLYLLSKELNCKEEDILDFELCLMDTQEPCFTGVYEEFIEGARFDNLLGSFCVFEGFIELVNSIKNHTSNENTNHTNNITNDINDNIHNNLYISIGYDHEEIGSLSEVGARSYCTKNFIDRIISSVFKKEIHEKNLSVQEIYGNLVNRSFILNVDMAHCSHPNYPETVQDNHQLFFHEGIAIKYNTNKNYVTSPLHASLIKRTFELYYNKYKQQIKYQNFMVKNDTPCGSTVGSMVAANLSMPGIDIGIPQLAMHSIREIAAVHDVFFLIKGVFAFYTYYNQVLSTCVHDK

Procathepsin L = Procathepsin L (Homo sapiens, UniProt P07711); assay: cathepsin L inhibitors, dose response, counter-screen for M1/M17 aminopeptidase inhibitor project, biochemical, QFRET, 1536-well (AID 2214)
Procathepsin L, sequence (P07711 whole entry): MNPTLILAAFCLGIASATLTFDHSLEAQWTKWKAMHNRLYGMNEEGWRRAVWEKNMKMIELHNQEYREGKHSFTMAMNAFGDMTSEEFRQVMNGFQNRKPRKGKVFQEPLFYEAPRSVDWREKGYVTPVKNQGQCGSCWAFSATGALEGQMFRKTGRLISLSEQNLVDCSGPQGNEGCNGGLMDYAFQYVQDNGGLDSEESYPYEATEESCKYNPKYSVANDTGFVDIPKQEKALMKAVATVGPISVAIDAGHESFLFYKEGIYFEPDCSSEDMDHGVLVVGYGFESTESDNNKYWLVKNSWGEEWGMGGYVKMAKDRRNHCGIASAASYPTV

Large T antigen, sequence (P03070 whole entry): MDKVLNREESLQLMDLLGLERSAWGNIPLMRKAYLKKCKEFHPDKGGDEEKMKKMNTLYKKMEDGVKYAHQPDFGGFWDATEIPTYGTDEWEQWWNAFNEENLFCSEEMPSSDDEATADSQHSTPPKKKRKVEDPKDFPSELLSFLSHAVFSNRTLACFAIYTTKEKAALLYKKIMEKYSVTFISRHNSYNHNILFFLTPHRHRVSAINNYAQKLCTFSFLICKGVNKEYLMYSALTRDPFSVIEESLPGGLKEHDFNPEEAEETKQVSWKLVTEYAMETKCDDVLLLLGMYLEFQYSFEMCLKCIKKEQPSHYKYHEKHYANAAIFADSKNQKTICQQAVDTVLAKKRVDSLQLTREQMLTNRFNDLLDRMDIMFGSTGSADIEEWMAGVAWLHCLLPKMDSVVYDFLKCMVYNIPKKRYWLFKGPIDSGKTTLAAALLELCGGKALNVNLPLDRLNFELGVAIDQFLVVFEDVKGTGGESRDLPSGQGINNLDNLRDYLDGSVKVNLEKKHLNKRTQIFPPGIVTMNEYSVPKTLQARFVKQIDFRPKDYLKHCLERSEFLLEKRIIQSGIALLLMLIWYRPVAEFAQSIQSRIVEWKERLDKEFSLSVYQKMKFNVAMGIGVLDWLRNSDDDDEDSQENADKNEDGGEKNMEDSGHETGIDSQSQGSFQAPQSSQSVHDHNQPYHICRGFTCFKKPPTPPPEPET

Q: Which IC50 [1] does the source give for `COC(=O)C1=C(C)N(Cc2ccccc2C(F)(F)F)C(NCc2ccccc2)=NC1c1cccc(F)c1` (configuration not stated) here?
A: > 96.6 µM (inactive)

Q: For `C/C(N)=C(/C#N)C(=O)CSc1cc(C)c2cc(C)cc(C)c2n1`, which EC50 [2] is on record?
A: 4.13 µM (active)

Q: And the EC50 [3]?
A: > 60 µM (not active)

Q: And the IC50 (cells [4])?
A: 12 µM (active)

Q: Which IC50 [1] does the source give for `CC(C)Nc1nc(NCCOc2ccccc2Cl)c2sc(-c3ccccc3)cc2n1` here?
A: > 96.6 µM (inactive)

Q: With `N#Cc1nc(-c2ccc(OCc3ccc(Cl)cc3)cc2)oc1NCc1cccnc1` as the compound, how does the IC50 (Estrogen receptor) read?
A: 37.4 µM (not active)

Q: For `CC(=O)c1ccc2c(c1)C1C=CCC1C(c1ccc(S(=O)(=O)N3CCOCC3)cc1)N2` (configuration not stated), which CC50 [5] is on record?
A: 17.2 µM (active)

Q: What about the IC50 (cells [4]) of the same compound?
A: 22.5 µM (active)

Q: With `COc1ccccc1N1CCN(/N=C/c2ccc(O)c(O)c2)CC1` as the compound, how does the IC50 (Large T antigen) read?
A: 15 µM (active)

Q: And the IC50 [6]?
A: > 50 µM (not active)

Q: With `COc1ccc(Cl)cc1NC(=O)c1oc(C)nc1C` as the compound, how does the IC50 (Estrogen receptor) read?
A: > 50 µM (not active)

Q: Which EC50 [2] does the source give for `COc1cc(CN(C)CCc2ccccc2)ccc1OCc1ccccc1` here?
A: < 0.1 µM (active)

Q: What about the EC50 (cells [7]) of the same compound?
A: 0.006 µM (active)

Q: What about the EC50 [3] of the same compound?
A: 19.1 µM (active)

Q: Which results are given for `O=C(CSc1nccc(O)n1)Nc1ccc(Br)c(Cl)c1`?
A: IC50 (Leucine aminopeptidase): 2.5 µM (active); IC50 (Aspartyl aminopeptidase): > 73.5 µM (not active); IC50 (Procathepsin L): > 59.6 µM (not active)
